# Read-outs that look alike come from different tables or passages of the source. Where a SMILES comes first, the peptide text is derived from it.
# Assays:
# E. coli BW25113 ΔsbmA = assay type: cell-based, Escherichia coli; details: for Minimum inhibitory concentration, E. coli strain ΔsbmA: Mueller–Hinton broth, 24 h, 37 °C, median
# Description: (§1) The reduction of resazurin to resorufin was measured.
# E. coli BW25113 = assay type: cell-based, Escherichia coli; details: BW25113, 24 h
# Description: as §1
# B. subtilis B-886 = test: Antimicrobial assay (MIC); assay type: cell-based, Bacillus subtilis; details: Mueller-Hinton broth supplemented with 0.9% NaCl
# Description: as §1
# A. baumannii XDR CI 2675 = test: Antimicrobial assay (MIC); assay type: cell-based; details: Mueller-Hinton broth supplemented with 0.9% NaCl
# Description: as §1
# [1] = test system: B. licheniformis VKM B511; test: Antimicrobial assay (MIC); assay type: cell-based; details: Mueller-Hinton broth supplemented with 0.9% NaCl
# Description: as §1
# E. cloacae XDR CI 4172 = test: Antimicrobial assay (MIC); assay type: cell-based; details: Mueller-Hinton broth supplemented with 0.9% NaCl
# Description: as §1
# [2] = test system: K. pneumoniae ATCC 700603; test: Antimicrobial assay (MIC); assay type: cell-based; details: Mueller-Hinton broth supplemented with 0.9% NaCl
# Description: as §1
# [3] = test system: Mycobacterium phlei Ac-1291; test: Antimicrobial assay (MIC); assay type: cell-based; details: Mueller-Hinton broth supplemented with 0.9% NaCl
# Description: as §1
# P. mirabilis XDR CI 3423 = test: Antimicrobial assay (MIC); assay type: cell-based; details: Mueller-Hinton broth supplemented with 0.9% NaCl
# Description: as §1
# E. coli MDR 1057 = details: MH broth with 0.9% NaCl, 14 passages with the same agent (VicBac[1–22]: after 10 passages)
# Description: Resistance induction experiments were performed using the previously described method. Briefly, on day one, the overnight culture of wild-type bacteria was diluted with the 2× MH broth supplemented with 1.8% NaCl to reach a final cell concentration of 10^6 CFU/mL. 50 µL of the obtained bacterial suspension were added to aliquots of 50 µL of the peptide solutions serially diluted with the sterilized 0.1% BSA in 96-well flat-bottom polystyrene microplates. After incubation for 20 ± 2 h at 37 °C and 950 rpm, MICs were determined as described above. For each subsequent daily transfer, 2–4 μL of the inoculum taken from the first well containing a sub-inhibitory drug concentration were diluted with 2 mL of the fresh 2× MH broth supplemented with 1.8% NaCl. […] Bacteria that grew at the highest concentration of AMPs on the final day were passaged a further 3 times on drug-free agar plates before determining the final MIC value.
# [4] = test system: E. coli ML-35p cytoplasmic membrane; test: Cytoplasmic membrane permeabilization (ONPG hydrolysis); assay type: cell-based, Escherichia coli
# Description: To examine the ability of the peptides to affect the barrier function of the cytoplasmic bacterial membrane, we slightly modified the previously described procedure with the use of the E. coli ML-35p strain constitutively expressing cytoplasmic β-galactosidase but lacking lactose permease. The state of the E. coli ML-35p inner membrane was assessed based on its permeability to chromogenic marker o-nitrophenyl-β-D-galactopyranoside (ONPG, AppliChem, Darmstadt, Germany), which is the β-galactosidase substrate. The cells were incubated in the trypticase soy broth (TSB) for 16 h at 37 °C, washed three times with phosphate-buffered saline (PBS, pH 7.4) to remove residual growth media, adjusted to the concentration of 2.5 × 10^8 CFU/mL, and stored on ice until used. The assay was performed in PBS as well. The final concentration of E. coli ML-35p cells was 2.5 × 10^7 CFU/mL. The concentration of ONPG was 2.5 mM. Peptide samples were placed in the wells of a 96-well plate with a non-binding surface (NBS, Corning #3641), and the optical density (OD) of the solution rose due to the appearance of o-nitrophenol was measured at 405 nm using a microplate reader AF2200 (Eppendorf, Hamburg, Germany). The final volume in each well was 200 µL. Assays were performed at 37 °C under stirring at 500 rpm. Control experiments were performed under the same conditions without adding a peptide. Two independent experiments were performed, and the curve pattern was similar.
# human cells = test: Cytokine response (multiplex xMAP immunoassay), cell type not given; assay type: cell-based; details: 2 µM peptide, 24 h, control 1813 pg/mL
# Description: Acute monocytic leukemia THP-1 line (ATCC TIB-202) was cultured in complete RPMI 1640 medium (Invitrogen, Waltham, MA, USA) containing 10% FBS, 1× antibiotic-antimycotic solution (Invitrogen, Waltham, MA, USA), and 0.05 mM β-mercaptoethanol, in the CO2-incubator (5% CO2, 37 °C). THP-1 cells were differentiated into proinflammatory macrophages (MΦ1) according to the previously reported protocol. Primary peripheral blood mononuclear cells (PBMC) collected from a healthy donor were purchased from American Type Culture Collection (ATCC PCS-800-011), thawed, and seeded into a 96-well plate one day prior to the experiment at a density of 2 × 10^5 cells/well. […] 27 analytes were measured at a protein level by multiplex xMAP technology using the MILLIPLEX MAP Human Cytokine/Chemokine Magnetic Bead Immunology Panel kit (HCYTOMAG-60K-27, Merck, Darmstadt, Germany): eotaxin-1/CCL11, TGFα, GM-CSF, IFNα2, IFNγ, IL-10, IL-12p40, IL-12p70, IL-13, IL-15, sCD40L, IL-17A, IL-1RA, IL-1α, IL-9, IL-1β, IL-2, IL-3, IL-4, IL-5, IL-6, IL-7, IL-8/CXCL8, IP-10/CXCL10, RANTES/CCL5, TNFα, TNFβ. Multiplex-based assay read-out was performed using the MAGPIX system (Merck) with the xPONENT 4.2 software (Merck, Darmstadt, Germany) in accordance with the manufacturer’s instruction with overnight incubation of the samples with primary antibodies. […]
# S. aureus ATCC 25923 = test: Antimicrobial assay (MIC); assay type: cell-based, Staphylococcus aureus; details: Mueller–Hinton broth supplemented with 0.9% NaCl
# Description: as §1
# S. aureus ATCC 6538P = test: Antimicrobial assay (MIC); assay type: cell-based, Staphylococcus aureus; details: Mueller-Hinton broth supplemented with 0.9% NaCl
# Description: as §1
compound,measurement,setting,value
CC[C@H](C)[C@H](NC(=O)[C@H](CCCNC(=N)N)NC(=O)[C@@H](N)CCCNC(=N)N)C(=O)N[C@@H](CCCNC(=N)N)C(=O)N[C@@H](CCCNC(=N)N)C(=O)N1CCC[C@H]1C(=O)N[C@@H](CCCNC(=N)N)C(=O)N[C@@H](CC(C)C)C(=O)N1CCC[C@H]1C(=O)N[C@@H](CCCNC(=N)N)C(=O)N1CCC[C@H]1C(=O)N[C@@H](CCCNC(=N)N)C(=O)N[C@H](C(=O)N1CCC[C@H]1C(=O)N[C@@H](CCCNC(=N)N)C(=O)N1CCC[C@H]1C(=O)N[C@@H](CCCNC(=N)N)C(=O)N[C@H](C(=O)N1CCC[C@H]1C(=O)N1CCC[C@H]1C(=O)N[C@@H](CCCNC(=N)N)C(=O)N[C@H](C(=O)N1CCC[C@H]1C(=O)N[C@@H](CCCNC(=N)N)C(=O)N1CCC[C@H]1C(=O)N[C@H](C(=O)N[C@@H](CC(C)C)C(=O)N1CCC[C@H]1C(=O)N1CCC[C@H]1C(=O)N1CCC[C@H]1C(=O)N[C@@H](CCCNC(=N)N)C(=O)N[C@H](C(=O)N1CCC[C@H]1C(=O)N[C@@H](Cc1ccccc1)C(=O)N1CCC[C@H]1C(=O)N[C@@H](CCCNC(=N)N)C(=O)N[C@@H](Cc1ccccc1)C(=O)N1CCC[C@H]1C(=O)N[C@@H](CCCNC(=N)N)C(N)=O)C(C)C)C(C)C)[C@@H](C)CC)[C@@H](C)CC)C(C)C [VicBac[1-39]] (H-RRIRRPRLPRPRVPRPRIPPRIPRPVLPPPRVPFPRFPR-NH2; N-terminus assumed),increase in MIC against ΔsbmA strain versus BW25113,E. coli BW25113 ΔsbmA; Mueller–Hinton broth with 0.9% NaCl,2 fold
same,"Minimum inhibitory concentration, E. coli strain ΔsbmA",E. coli BW25113 ΔsbmA; 0.9% NaCl: +,2 µM
same,"Minimum inhibitory concentration, E. coli strain ΔsbmA",E. coli BW25113 ΔsbmA; 0.9% NaCl: −,2 µM
same,"Minimum inhibitory concentration, E. coli strain BW25113",E. coli BW25113,1 µM
same,"MIC, B. subtilis B-886",B. subtilis B-886,16 µM
same,"MIC, A. baumannii XDR CI 2675",A. baumannii XDR CI 2675,8 µM
same,"MIC, B. licheniformis VKM B511",[1],1 µM
same,"MIC, E. cloacae XDR CI 4172",E. cloacae XDR CI 4172,4 µM
same,"MIC, K. pneumoniae ATCC 700603",[2],2 µM
same,"MIC, Mycobacterium phlei Ac-1291",[3],0.5 µM
same,"MIC, P. mirabilis XDR CI 3423",P. mirabilis XDR CI 3423,8 µM
same,increase in MIC value after serial passage selection,E. coli MDR 1057,did not change
same,membrane damage effect at concentrations near the MIC value,"[4]; E. coli ML-35p, ONPG, near MIC 0.5 µM",negligible membrane damage effect
same,effect on E. coli ML-35p cytoplasmic membrane permeability for ONPG,"[4]; PBS, 37 °C, OD405, 2.5 mM ONPG, two independent experiments",quite moderate effect
same,Production of IL-8/CXCL8,human cells,1034 pg/mL
same,inhibition of S. aureus ATCC 25923,S. aureus ATCC 25923,could not inhibit
same,"MIC, S. aureus ATCC 6538P",S. aureus ATCC 6538P,0.25 µM

# — PMC9146984, “A Novel Proline-Rich Cathelicidin from the Alpaca Vicugna pacos with Potency to Combat Antibiotic-Resistant Bacteria: Mechanism of Action and the Functional Role of the C-Terminal Region” (Membranes, 2022)
